Measured values taken from patent US10976318B2, “Method of treating cancer using a caspase-4 inhibitor” (IMMUNEPHARMA S.R.L., priority 2014, dated 2021).
*: point of attachment. CH2Cl = ClC*

Tested on: lung tumor lesion in C57Bl/6 mice treated with NMU
Assay: Murine model of lung carcinoma induced by intratracheal NMU; tumor lesion area/total lung area
Assay type: in vivo, mouse
Details: C57Bl/6 mice exposed to NMU, caspase-1 inhibitor i.p.; *p<0.05, **p<0.01; FIG. 6C
Protocol: Murine Model of Lung Carcinoma.
C57Bl/6 mice (Harlan Laboratories, Italy) and 129Sv mice, and caspase-1 and 11 knockout mice (Charles River Laboratories, Italy) (females of 6-8 weeks) were subjected to intratracheal (i.t.) instillation of a carcinogen, N-nitroso-N-methyl-urea (NMU), having alkylating and mutagenic activities (Damiani et al., 2008). NMU was administered three times every 7 days, according to the following administration schedule and dosage: day 0, 50 μg/mouse; day 8, 10 μg/mouse and day 15, 10 μg/mouse (FIG. 1). In some experiments, an anti-IL-1α antibody (Ab) (2 μg/[…] i.p.; eBioscience, USA), or a caspase-1 inhibitor (Ac-Y-VAD-cmk: 10 ug/mouse i.p., Sigma Aldrich, USA), or an anti-caspase-11 antibody (10 ug/mouse, i.p.; Santa Cruz, USA) were administered to C57Bl/6 mice treated with NMU. The animals were sacrificed at different time points (3-7-30 days from the first NMU administration), according to the scheme shown in FIG. 1. The tumor lesion was expressed as the tumor lesion area/total lung area ratio. […]
The results are expressed as mean±SEM. The differences between the various groups were statistically analyzed using One Way ANOVA analysis and/or Student's t test, as appropriate. […]

Ac-Tyr-Val-Ala-Asp-Chloromethylketone (Ac-YVAD-CH2Cl) [Ac-Y-VAD-cmk, N. SML-0429]
tumor lesion, effect in words: reduced

Ac-Tyr-Val-Ala-Asp-CHO (Ac-YVAD-aldehyde) [y-VAD-CHO, N. sc-3069]
tumor lesion, effect in words: reduced
